Results on four compounds are retold here after patent US20080096861A1, “Chemical Compounds” (SMITHKLINE BEECHAM CORPORATION, priority 2004, published 2008).

Each structure is given as a SMILES string. pIC50: −log10 of the molar value. Read-outs that look alike come from different tables or passages of the source.

In one data set the test system is HIV-1 IIIB. Briefly: HOS HIV-1 infectivity assay. The class given is cell-based. The method in brief: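 Blockade of infection is measured in HOS cells carrying hCD4, hCXCR4, hCCR5 and an HIV-LTR-driven luciferase, using virus grown in human peripheral blood lymphocytes. After 96 h, Steady-Glo luminescence reports infection, while CellTiter-Glo gauges cytotoxicity without virus.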

Data set [1] in a line: Compound cytotoxicity in HOS cells in the absence of virus (CellTiter-Glo). Format: cell-based. The conditions noted are these: human, no virus, read-out: Cytotox (pIC50) (converted). The procedure: Compounds were profiled against two HIV-1 viruses, the M-tropic (CCR5 utilizing) Ba-L strain and the T-tropic (CXCR4 utilizing) IIIB strain. Both viruses were propagated in human peripheral blood lymphocytes. Compounds were tested for there ability to block infection of the HOS cell line (expressing hCXCR4/hCCR5/hCD4/pHIV-LTR-luciferase) by either HIV-1 Ba-L or HIV-1 IIIB. Compound cytotoxicity was also examined in the absence of virus addition.
HOS cells (expressing hCXCR4/hCCR5/hCD4/pHIV-LTR-luciferase) were harvested and diluted in Dulbeccos modified Eagles media supplemented with 2% FCS and non-essential amino acid to a concentration of 60,000 cells/ml. The cells were plated into 96-well plates (100 ul per well) and the plates were placed in a tissue culture incubator (37° C.; 5% CO2/95% air) for a period of 24 h.
Subsequently, 50 ul of the desired drug solution (4 times the final concentration) was added to each well and the plates were returned to the tissue culture incubator (37° C.; 5% CO2/95% air) for 1 h. Following this incubation 50 ul of diluted virus was added to each well (approximately 2 million RLU per well of virus). The plates were returned to the tissue culture incubator (37° C.; 5% CO2/95% air) and were incubated for a further 96 h.
Following this incubation the endpoint for the virally infected cultures was quantified following addition of Steady-Glo Luciferase assay system reagent (Promega, Madison, Wis.). Cell viability or non-infected cultures was measured using a CellTiter-Glo luminescent cell viability assay system (Promega, Madison, Wis.). All luminescent readouts are performed on a Topcount luminescence detector (Packard, Meridien, Conn.).
A general note: Cellular ATP, detected with luciferase, serves as a proxy for viable cell number.

A further data set addresses T1, CXCR4 receptor (Homo sapiens, UniProt P61073).
T1 construct: expressed in transfected cells; host or cells: HEK-293 cells (stably expressing human macrophage scavenger receptor) transduced with human CXCR4 BacMam and Gqi5 BacMam
The data set is described as follows: Functional FLIPR assay (block of SDF-1 alpha induced [Ca2+]i change). The class given is cell-based. The conditions noted are these: HEK-293 cells, human CXCR4 BacMam and Gqi5 BacMam, read-out: Functional assay (pIC50) (converted). The procedure: Human embryonic kidney (HEK-293) cells were maintained and harvested as described above. Cells were plated in 96-well, black clear bottom, poly-lysine coated plates at a concentration of 40,000 cells per well in a final volume of 100 ul containing human CXCR4BacMam (MOI=25) and Gqi5 BacMam (MOI=12.5). The cells were incubated at 37° C., 5% CO2, 95% humidity for 24 h to allow for protein expression.
After the required incubation time the cells were washed once with 50 ul of fresh serum-free DMEM/F12 media containing probenicid. 50 ul of dye solution was then added to the cells (Calcium Plus Assay Kit Dye; Molecular Devices) was dissolved in 200 ml of the above probenicid/BSA containing media and incubated for 1 h. Cell plates were transferred to a Fluorometric Imaging Plate Reader (FLIPR). Upon addition the effect of the compounds on the change in [Ca^2+]i was examined to determine if the compounds were agonists or antagonists (ability to block SDF-1 alpha activity) at the CXCR4 receptor. IC50 values are determined and pKb values are calculated using the Leff and Dougall equation: KB═IC50/((2+([agonist]/EC50̂b)̂1/b−1) Where IC50 is that defined by the antagonist concentration-response curve [agonist)] is the EC80 concentration of agonist used EC50 is that defined by the agonist concentration-response curve b is the slope of the agonist concentration-response curve.

Data set [2] has as its system HIV-1 gp160 (HXB2 strain) mediated cell/cell fusion. Briefly: Cell/cell fusion assay (HOS hCXCR4/hCCR5/hCD4/pHIV-LTR-luciferase cells with HEK-293 cells expressing HIV-1 tat, rev, gp160), luciferase readout. The class given is cell-based. The following applies: Homo sapiens, HEK293, 24 h, read-out: Fusion assay (pIC50) (converted). An excerpt: The complete coding sequences of HIV-1 tat (GenBank Accession No. X07861) and rev (GenBank Accession No. M34378) were cloned into pcDNA3.1 expression vectors containing G418 and hygromycin resistance genes, respectively. The complete coding sequence of the HIV-1 (HXB2 strain) gp160 envelope gene (nucleotide bases 6225-8795 of GenBank Accession No. K03455) was cloned into plasmid pCRII-TOPO. The three HIV genes were additionally inserted into the baculovirus shuttle vector, pFastBacMam1, under the transcriptional control of the CMV promoter. A construction of the pHIV-1 LTR containing mutated NFkB sequences linked to the luciferase reporter gene was prepared by digesting pcDNA3.1, containing the G418 resistance gene, with Nru I and Bam HI to remove the CMV promoter. LTR-luc was then cloned into the Nru I/Bam HI sites of the plasmid vector. Plasmid preparations were performed after the plasmids were amplified in Escherichia coli strain DH5-alpha. The fidelity of the inserted sequences was confirmed by double-strand nucleotide sequencing using an ABI Prism Model 377 automated sequencer.
Recombinant BacMam baculoviruses were constructed from pFastBacMam shuttle plasmids by using the bacterial cell-based Bac-to-Bac system. Viruses were propagated in Sf9 (Spodoptera frugiperda) cells cultured in Hink's TNM-FH Insect media supplemented with 10% (v/v) fetal bovine serum and 0.1% (v/v) pluronic F-68 according to established protocols.
Human osteosarcoma (HOS) cells that naturally express human CXCR4 were transfected with human CCR5, human CD4 and the pHIV-LTR-luciferase plasmid using FuGENE 6 transfection reagent. Single cells were isolated and grown under selection condition in order to generate a stable HOS (hCXCR4/hCCR5/hCD4/pHIV-LTR-luciferase) clonal cell line. The cells were maintained in Dulbeccos modified Eagles media supplemented with 10% fetal calf serum (FCS), G418 (400 ug/ml), puromycin (1 ug/ml), mycophenolic acid (40 ug/ml), xanthine (250 ug/ml) and hypoxanthine (13.5 ug/ml) to maintain a selection pressure for cells expressing the LTR-luciferase, hCCR5 and hCD4, respectively. Human embryonic kidney (HEK-293) cells stably transfected to express the human macrophage scavenging receptor (Class A, type 1; GenBank Accession No. D90187), were maintained in DMEM/F-12 media (1:1) supplemented with 10% FCS and 1.5 ug/ml puromycin. The expression of this receptor by the HEK-293 cells enhances their ability to stick to tissue culture treated plasticware.
HEK-293 cells were harvested using enzyme-free cell dissociation buffer. The cells were resuspended in DMEM/F-12 media supplemented with 10% FCS and 1.5 ug/ml and counted. Tranductions were performed by direct addition of BacMam baculovirus containing insect cell media to cells. The cells were simultaneously transduced with BacMam baculovirus expressing HIV-1 tat, HIV-1 rev and HIV-1 gp160 (from the HXB2 HIV strain). Routinely an MOI of 10 of each virus was added to the media containing the cells. 2 mM butyric acid was also added to the cells at this stage to increase protein expression in transduced cells. The cells were subsequently mixed and seeded into a flask at 30 million cells per T225. The cells were incubated at 37° C., 5% CO2, 95% humidity for 24 h to allow for protein expression.
HEK and HOS cells were harvested in DMEM/F-12 media containing 2% FCS and DMEM media containing 2% FCS, respectively, with no selection agents added. Compounds were plated as 1 ul spots in 100% DMSO on a 96-well CulturPlate plates. HOS cells (50 ul) were added first to the wells, followed immediately by the HEK cells (50 ul). The final concentration of each cell type was 20,000 cells per well. Following these additions, the cells were returned to a tissue culture incubator (37° C.; 5% CO2/95% air) for an additional 24 h.
Following the 24 h incubation, total cellular luciferase activity was measured using the LucLite Plus assay kit (Packard, Meridien, Conn.). […]

The subject of the next data set is T-tropic HIV. The following applies: patients dual tropic or with only T-tropic virus; cited from earlier work.
[3] abbreviates: Human immunodeficiency virus 1, IIIB, as determined by the infectivity assay, strain not stated in Table 2, read-out: Activity Level.
The mark [4] stands for this setting: Human immunodeficiency virus 1, T-tropic (CXCR4 utilizing) IIIB strain, HOS cells, 96 h, read-out: HOS (3B).

T1 sequence (P61073 whole entry): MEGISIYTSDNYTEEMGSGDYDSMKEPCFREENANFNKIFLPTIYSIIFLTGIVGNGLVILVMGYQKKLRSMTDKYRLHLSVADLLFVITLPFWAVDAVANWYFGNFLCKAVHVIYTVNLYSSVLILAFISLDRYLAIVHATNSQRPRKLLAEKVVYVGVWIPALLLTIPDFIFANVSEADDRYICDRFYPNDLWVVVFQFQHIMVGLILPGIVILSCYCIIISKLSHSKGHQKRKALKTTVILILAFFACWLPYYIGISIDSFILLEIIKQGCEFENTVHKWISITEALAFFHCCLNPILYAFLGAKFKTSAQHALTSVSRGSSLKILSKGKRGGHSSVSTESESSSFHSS

Consider `CN1CCC(Cn2c(CN(C)C3CCCc4cccnc43)nc3ccccc32)C1` (stereo not shown) [Example 8d, N-Methyl-N-({1-[(1-methyl-3-pyrrolidinyl)methyl]-1H-benzimidazol-2-yl}methyl)-5,6,7,8-tetrahydro-8-quinolinamine], for which the results for the pIC50 in the data set with HIV-1 IIIB (setting [3]) and with HIV-1 IIIB (setting [4]) were above 7.00 and 7.24, respectively. Moreover, the IC50 at 96 h in data set [1] is above 100000 nM. Further, the IC50 (on CXCR4 receptor; in data set [2]) was 74.1 nM throughout.

On to `CN1CCOC(Cn2c(CN(C)C3CCCc4cccnc43)nc3ccccc32)C1` (stereo not shown) [Example 25, N-Methyl-N-({1-[(4-methyl-2-morpholinyl)methyl]-1H-benzimidazol-2-yl}methyl)-5,6,7,8-tetrahydro-8-quinolinamine], for which the pIC50 was 6.30 to 7.00 with HIV-1 IIIB (setting [3]) and 6.73 in the data set with HIV-1 IIIB (setting [4]). Besides, the IC50 at 96 h in data set [1] was above 100000 nM. Further, the IC50 was 29.5 nM at CXCR4 receptor and 38 nM in data set [2].

On to `CN1CCN(CCCn2c(CN(C)C3CCCc4cccnc43)nc3ccccc32)CC1` (stereo not shown) [Example 9, N-Methyl-N-({1-[3-(4-methyl-1-piperazinyl)propyl]-1H-benzimidazol-2-yl}methyl)-5,6,7,8-tetrahydro-8-quinolinamine], for which the pIC50 in the data set with HIV-1 IIIB (setting [3]) is above 7.00; with HIV-1 IIIB (setting [4]), 7.03. Besides, the IC50 at 96 h in data set [1] was above 100000 nM. Besides, the IC50 is 135 nM on CXCR4 receptor and 166 nM in data set [2].

Take `c1cc(CN2CCCNCCNCCCNCC2)ccc1CN1CCCNCCNCCCNCC1` [AMD-3100]: the “T-tropic HIV viral load” value in the data set with T-tropic HIV is listed as “significantly reduce T-tropic HIV viral load”.
